The text below walks through data of ChEMBL document CHEMBL4476867, “Hydroxy formamide derivatives and their use” (2016).

The structures appear in SMILES notation.

In assay [1] the target is T1, Bone morphogenetic protein 1 (Homo sapiens, UniProt P13497).
T1 sequence (P13497 whole entry): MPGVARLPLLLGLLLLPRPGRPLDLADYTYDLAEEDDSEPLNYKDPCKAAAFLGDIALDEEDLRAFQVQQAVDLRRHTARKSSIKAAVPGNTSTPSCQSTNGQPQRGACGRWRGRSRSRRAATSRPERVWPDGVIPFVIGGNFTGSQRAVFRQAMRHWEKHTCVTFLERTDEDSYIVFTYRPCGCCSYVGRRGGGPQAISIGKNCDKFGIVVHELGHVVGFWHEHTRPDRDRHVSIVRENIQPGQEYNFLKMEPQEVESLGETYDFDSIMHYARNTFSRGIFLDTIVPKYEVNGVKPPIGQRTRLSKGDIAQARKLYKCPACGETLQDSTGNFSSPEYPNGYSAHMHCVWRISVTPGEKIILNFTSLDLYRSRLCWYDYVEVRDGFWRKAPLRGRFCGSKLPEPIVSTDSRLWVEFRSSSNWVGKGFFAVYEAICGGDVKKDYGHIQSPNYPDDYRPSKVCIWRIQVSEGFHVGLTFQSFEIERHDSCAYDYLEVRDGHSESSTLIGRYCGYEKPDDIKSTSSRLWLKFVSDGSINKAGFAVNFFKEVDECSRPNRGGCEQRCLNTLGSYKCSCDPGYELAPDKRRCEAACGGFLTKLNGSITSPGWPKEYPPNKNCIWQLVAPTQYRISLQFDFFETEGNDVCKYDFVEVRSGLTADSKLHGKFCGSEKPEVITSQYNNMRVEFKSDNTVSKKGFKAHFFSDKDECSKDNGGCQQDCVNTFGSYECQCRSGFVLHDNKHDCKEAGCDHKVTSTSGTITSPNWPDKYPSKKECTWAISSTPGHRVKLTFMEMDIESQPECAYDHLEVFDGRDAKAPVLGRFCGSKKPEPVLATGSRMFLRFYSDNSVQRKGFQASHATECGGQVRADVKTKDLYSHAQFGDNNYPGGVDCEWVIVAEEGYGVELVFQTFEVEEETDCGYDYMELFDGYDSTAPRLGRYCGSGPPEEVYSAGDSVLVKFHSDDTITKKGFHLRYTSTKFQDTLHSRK
As to the kind of experiment: Inhibition of C-terminal FLAG-6x-His epitope tagged and N-terminal human RAGE signal sequence tagged human BMP1 (23 to 721 amino acids) expressed in CHO-E1 cells pre-incubated for 10 mins before promyostatin peptide substrate addition and measured after 60 mins using 0.5 nM BMP1 by FRET based assay. The format is cell-based.

For assay [2], the target named is T1, Bone morphogenetic protein 1. As to the kind of experiment: Inhibition of C-terminal FLAG-6x-His epitope tagged and N-terminal human RAGE signal sequence tagged human BMP1 (23 to 721 amino acids) expressed in CHO-E1 cells pre-incubated for 10 mins before promyostatin peptide substrate addition and measured after 30 mins using 50 nM BMP1 by FRET based assay. It is filed as cell-based.

A short description of assay [3]: Reduction in PICP levels in human cardiac fibroblasts incubated for 24 to 48 hrs by ELISA. It is filed as functional. In short, it runs like this: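 Human cardiac fibroblasts at passage 6 or below were plated in 96-well plates at 10,000 to 15,000 cells per well. On the following day, cells were treated for 24 to 48 hr at 37° C in ficoll crowding EMEM containing 100 μM ascorbic acid, with DMSO kept under 0.3%. A Quidel ELISA measured procollagen I C-terminal propeptide released into the medium, and IC50 values were derived in GraphPad Prism by fitting levels, expressed relative to untreated controls, to a log(inhibitor)-response equation.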

Another assay addresses Tolloid-like protein 1 (Homo sapiens, UniProt O43897, I156V/N221S/V284A). Kind of assay: Inhibition of recombinant human TLL1 I156V/N221S/V284A mutant expressed in CHOE1A cells pre-incubated for 10 mins before promyostatin peptide substrate addition and measured after 60 mins by FRET based assay. The format is cell-based.
A further assay concerns the target T2, Tolloid-like protein 2 (Homo sapiens, UniProt Q9Y6L7).
T2 sequence (Q9Y6L7 whole entry): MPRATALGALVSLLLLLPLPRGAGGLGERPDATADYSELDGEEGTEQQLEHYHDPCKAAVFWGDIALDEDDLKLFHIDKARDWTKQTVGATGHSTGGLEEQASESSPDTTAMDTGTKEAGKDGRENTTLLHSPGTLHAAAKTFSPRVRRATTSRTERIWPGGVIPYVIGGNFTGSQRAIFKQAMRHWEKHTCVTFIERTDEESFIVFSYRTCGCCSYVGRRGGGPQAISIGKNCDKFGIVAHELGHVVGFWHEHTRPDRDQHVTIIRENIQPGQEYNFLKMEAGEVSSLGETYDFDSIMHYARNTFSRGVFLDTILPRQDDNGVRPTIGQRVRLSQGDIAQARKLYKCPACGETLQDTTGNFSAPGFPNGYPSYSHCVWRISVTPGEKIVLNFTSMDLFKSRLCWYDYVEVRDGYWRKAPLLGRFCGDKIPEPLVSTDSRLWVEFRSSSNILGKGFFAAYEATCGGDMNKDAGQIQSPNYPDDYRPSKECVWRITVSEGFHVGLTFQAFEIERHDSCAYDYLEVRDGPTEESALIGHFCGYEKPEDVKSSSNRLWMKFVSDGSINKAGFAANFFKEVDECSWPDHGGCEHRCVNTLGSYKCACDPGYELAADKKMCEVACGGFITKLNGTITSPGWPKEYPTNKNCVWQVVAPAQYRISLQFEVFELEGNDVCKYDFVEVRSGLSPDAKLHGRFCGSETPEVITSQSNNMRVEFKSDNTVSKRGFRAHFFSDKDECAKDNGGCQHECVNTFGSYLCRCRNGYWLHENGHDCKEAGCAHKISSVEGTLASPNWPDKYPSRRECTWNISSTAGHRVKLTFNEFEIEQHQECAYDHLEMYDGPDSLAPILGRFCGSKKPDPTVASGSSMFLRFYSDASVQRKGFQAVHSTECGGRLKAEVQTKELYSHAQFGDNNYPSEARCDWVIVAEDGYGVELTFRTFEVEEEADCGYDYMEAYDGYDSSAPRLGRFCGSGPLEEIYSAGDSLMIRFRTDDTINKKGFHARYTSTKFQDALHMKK
Kind of assay: Inhibition of C-terminal Avi-6x-His epitope tagged and N-terminal human RAGE signal sequence tagged recombinant human TLL2 (26 to 1015 amino acids) expressed in CHOE1A cells incubated for 60 mins with promyostatin peptide substrate by FRET based assay. It is filed as cell-based.

Tolloid-like protein 1, sequence (O43897 148-1013 I156V/N221S/V284A limits assumed): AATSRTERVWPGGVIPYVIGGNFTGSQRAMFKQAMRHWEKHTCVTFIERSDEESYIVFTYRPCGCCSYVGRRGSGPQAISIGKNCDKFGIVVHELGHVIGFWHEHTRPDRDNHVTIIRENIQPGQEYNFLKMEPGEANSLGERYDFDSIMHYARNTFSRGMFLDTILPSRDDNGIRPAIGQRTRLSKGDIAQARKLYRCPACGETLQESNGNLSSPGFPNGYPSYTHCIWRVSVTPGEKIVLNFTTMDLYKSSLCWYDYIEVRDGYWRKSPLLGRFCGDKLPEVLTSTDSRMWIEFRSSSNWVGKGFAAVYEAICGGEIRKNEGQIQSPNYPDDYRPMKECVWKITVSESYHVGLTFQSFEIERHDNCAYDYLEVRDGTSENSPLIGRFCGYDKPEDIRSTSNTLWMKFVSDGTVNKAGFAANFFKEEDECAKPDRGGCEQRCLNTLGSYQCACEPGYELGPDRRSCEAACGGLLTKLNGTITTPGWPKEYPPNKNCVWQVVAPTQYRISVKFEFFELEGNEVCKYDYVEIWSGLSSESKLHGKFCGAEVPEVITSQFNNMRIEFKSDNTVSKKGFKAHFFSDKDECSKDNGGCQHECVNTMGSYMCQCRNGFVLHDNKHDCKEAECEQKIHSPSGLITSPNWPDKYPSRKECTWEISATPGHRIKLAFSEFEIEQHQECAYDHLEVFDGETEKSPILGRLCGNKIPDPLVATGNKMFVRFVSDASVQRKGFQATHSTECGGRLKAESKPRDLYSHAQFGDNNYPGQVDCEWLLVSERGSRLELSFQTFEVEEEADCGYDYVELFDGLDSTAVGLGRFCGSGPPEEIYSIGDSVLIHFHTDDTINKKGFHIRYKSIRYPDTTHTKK

Consider `CCCCC[C@@H](C(=O)NCNC(=O)c1ccc(-c2ccc(C(=O)O)cc2)o1)[C@@H](CC)N(O)C=O`, for which the IC50 in assay [1] is below 126 nM; in assay [2], below 200 nM; in assay [3], below 3980 nM; at Tolloid-like protein 1, below 398 nM; at Tolloid-like protein 2, below 794 nM.

In the case of `CCCCC[C@H](CN(O)C=O)C(=O)NCNC(=O)c1ccc(-c2cc(OCC)cc(C(=O)OC)c2)o1`, the IC50 in assay [1] was below 126 nM; in assay [2], below 200 nM; in assay [3], below 3980 nM; on Tolloid-like protein 1, below 398 nM; at Tolloid-like protein 2 it was below 794 nM.

`CCCCC[C@H](CN(O)C=O)C(=O)NCNC(=O)c1ccc(-c2ccc(O)c(C(=O)O)c2)o1`: the half-inhibitory concentration (IC50) was below 126 nM in assay [1]; below 200 nM in assay [2]; below 3980 nM in assay [3]; below 398 nM at Tolloid-like protein 1; below 794 nM on Tolloid-like protein 2.

Turning to `CCCCC[C@@H](C(=O)NCNC(=O)c1ccc(-c2ccc(C3(C(=O)O)CC3)cc2)o1)[C@@H](CC)N(O)C=O`, the IC50 in assay [1] is below 126 nM; in assay [2], below 200 nM; in assay [3], below 3980 nM; on Tolloid-like protein 1, below 398 nM; at Tolloid-like protein 2 it was below 794 nM.

On to `CCCCC[C@H](CN(O)C=O)C(=O)NCNC(=O)c1ccc(-c2cccc(CC(=O)O)c2)o1`, for which the IC50 in assay [1] was below 126 nM; in assay [2], below 200 nM; in assay [3], below 3980 nM; at Tolloid-like protein 1 it was below 398 nM; on Tolloid-like protein 2, below 794 nM.

Take `CCCCC[C@H](CN(O)C=O)C(=O)NCNC(=O)c1ccc(-c2ccc(N)c(C(=O)O)c2)o1`: the IC50 in assay [1] is below 126 nM; in assay [2], below 200 nM; in assay [3], below 3980 nM; on Tolloid-like protein 1 it was below 398 nM; on Tolloid-like protein 2, below 794 nM.

Consider `CCCCC[C@H](CN(O)C=O)C(=O)NCNC(=O)c1ccc(-c2ccc(F)c(C(=O)O)c2)o1`, for which the IC50 in assay [1] was below 126 nM; in assay [2], below 200 nM; in assay [3] it was below 3980 nM; on Tolloid-like protein 1 it was below 398 nM; on Tolloid-like protein 2 it was below 794 nM.

Turning to `CCCCC[C@@H](C(=O)NCNC(=O)c1ccc(-c2cc(OCC)cc(C(=O)NCC[N+](C)(C)C)c2)o1)[C@@H](CC)N(O)C=O`, the IC50 in assay [1] was below 126 nM; in assay [2], below 200 nM; in assay [3] it was below 3980 nM; on Tolloid-like protein 1 it was below 398 nM; at Tolloid-like protein 2 it was below 794 nM.

On to `CCCCC[C@@H](C(=O)NCNC(=O)c1ccc(-c2ccc(C(=O)O)c(O)c2)o1)[C@@H](CC)N(O)C=O`, for which the IC50 in assay [1] is below 126 nM; in assay [2], below 200 nM; in assay [3] it was below 3980 nM; at Tolloid-like protein 1, below 398 nM; at Tolloid-like protein 2, below 794 nM.

Consider `CCCCC[C@H](CN(O)C=O)C(=O)NCNC(=O)c1ccc(-c2cc(OC)ccn2)o1`, for which the IC50 in assay [1] is below 126 nM; in assay [2], below 200 nM; in assay [3] it was below 3980 nM; on Tolloid-like protein 1 it was below 398 nM; on Tolloid-like protein 2 it was below 794 nM.

Consider `CCCCC[C@H](CN(O)C=O)C(=O)NCNC(=O)c1ccc(-c2cccc(P(C)(=O)O)c2)o1`, for which the IC50 in assay [1] is below 126 nM; in assay [2], below 200 nM; in assay [3], below 3980 nM; on Tolloid-like protein 1 it was below 398 nM; on Tolloid-like protein 2, below 794 nM.

As for `CCCCC[C@H](CN(O)C=O)C(=O)NCNC(=O)c1ccc(-c2ccc3cnn(C)c3c2)o1`, the IC50 in assay [1] was below 126 nM; in assay [2], below 200 nM; in assay [3], below 3980 nM; at Tolloid-like protein 1, below 398 nM; on Tolloid-like protein 2, below 794 nM.

Take `CCCCC[C@H](CN(O)C=O)C(=O)NCNC(=O)c1ccc(-c2cccc(OCC(F)(F)F)c2)o1`: the IC50 was below 126 nM in assay [1]; below 200 nM in assay [2]; below 3980 nM in assay [3]; below 398 nM on Tolloid-like protein 1; below 794 nM on Tolloid-like protein 2.

`CCCCC[C@@H](C(=O)NCNC(=O)c1ccc(-c2ccc(C(=O)NCP(=O)(O)O)cc2)o1)[C@@H](CC)N(O)C=O`: the IC50 was below 126 nM in assay [1]; below 200 nM in assay [2]; below 3980 nM in assay [3]; below 398 nM on Tolloid-like protein 1; below 794 nM on Tolloid-like protein 2.

For `CCCCC[C@H](CN(O)C=O)C(=O)NCNC(=O)c1ccc(-c2cccc(C(=O)OC)c2)o1`, the IC50 is below 126 nM in assay [1]; below 200 nM in assay [2]; below 3980 nM in assay [3]; below 398 nM at Tolloid-like protein 1; below 794 nM on Tolloid-like protein 2.

As to `CCCCC[C@@H](C(=O)NCNC(=O)c1ccc(-c2ccc(C(=O)N[C@@H](CC(=O)O)C(=O)O)cc2)o1)[C@@H](CC)N(O)C=O`, the IC50 in assay [1] was below 126 nM; in assay [2], below 200 nM; in assay [3], below 3980 nM; on Tolloid-like protein 1, below 398 nM; at Tolloid-like protein 2, below 794 nM.

`CCCCC[C@@H](C(=O)NCNC(=O)c1ccc(-c2cc(OCC)cc(C(=O)NC(CO)(CO)CO)c2)o1)[C@@H](CC)N(O)C=O`: the IC50 in assay [1] is below 126 nM; in assay [2] it was below 200 nM; in assay [3], below 3980 nM; on Tolloid-like protein 1 it was below 398 nM; on Tolloid-like protein 2, below 794 nM.

On to `CCCCC[C@@H](C(=O)NCNC(=O)c1ccc(-c2ccc(C(=O)NCP(=O)(O)O)c(C)c2)o1)[C@@H](CC)N(O)C=O`, for which the IC50 in assay [1] was below 126 nM; in assay [2], below 200 nM; in assay [3], below 3980 nM; at Tolloid-like protein 1 it was below 398 nM; on Tolloid-like protein 2, below 794 nM.

Consider `CCCCC[C@H](CN(O)C=O)C(=O)NCNC(=O)c1ccc(-c2cccc(SCC)c2)o1`, for which the IC50 in assay [1] was below 126 nM; in assay [2], below 200 nM; in assay [3], below 3980 nM; on Tolloid-like protein 1, below 398 nM; at Tolloid-like protein 2, below 794 nM.

Turning to `CC[C@H]([C@@H](CCc1ccc(F)cc1F)C(=O)NCNC(=O)c1ccc(-c2cc(OCC(=O)O)cc(C(=O)O)c2O)o1)N(O)C=O`, the IC50 in assay [1] was below 126 nM; in assay [2], below 200 nM; in assay [3], below 3980 nM; at Tolloid-like protein 1 it was below 398 nM; on Tolloid-like protein 2, below 794 nM.

Take `CCCCC[C@H](CN(O)C=O)C(=O)NCNC(=O)c1ccc(-c2cccc(P(=O)(O)O)c2)o1`: the IC50 in assay [1] was below 126 nM; in assay [2] it was below 200 nM; in assay [3] it was below 3980 nM; on Tolloid-like protein 1, below 398 nM; at Tolloid-like protein 2 it was below 794 nM.
